# Measurements published in patent publication US11254663B2 (BRISTOL-MYERS SQUIBB COMPANY, priority 2019, dated 2022).
# Molecular target: FXR (Homo sapiens (Human), UniProt Q96RI1)
# Assay: transient human FXR/Gal4-luciferase reporter assay
# Type: cell-based
# Details: not given
# Outline: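 Compound exposure ran overnight at 37 °C and activity was measured as luminescence with Steady-Glo reagent. The cells were a HEK293 line stably expressing firefly luciferase under five Gal4 response elements. They were transiently transfected, one night beforehand, with a plasmid encoding Gal4 DNA-binding domain fused to the human FXR ligand-binding domain.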
# Chain of FXR (Q96RI1 262-486): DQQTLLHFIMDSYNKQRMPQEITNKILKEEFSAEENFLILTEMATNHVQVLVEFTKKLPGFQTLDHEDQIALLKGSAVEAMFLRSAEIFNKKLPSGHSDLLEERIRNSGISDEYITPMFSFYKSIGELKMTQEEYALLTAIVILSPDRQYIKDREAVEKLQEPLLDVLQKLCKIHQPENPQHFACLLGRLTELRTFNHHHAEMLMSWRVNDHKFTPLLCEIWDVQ
row,Compound,EC50 [µM]
1,"Cc1nc2ccc(-c3cccc(N(CC45CCC(c6nc(C7CC7)no6)(CC4)OC5)C(=O)C4CC(C(F)F)C4)c3)cc2s1 (stereo not drawn) [Example 566, N-((1-(3-cyclopropyl-1,2,4-oxadiazol-5-yl)-2-oxabicyclo[2.2.2]octan-4-yl)methyl)-3-(difluoromethyl)-N-(3-(2-methylbenzo[d]thiazol-6-yl)phenyl)cyclobutane-1-carboxamide]",0.922
2,"Cc1nc2ccc(-c3ccnc(N(CC45CCC(c6cc(C7CC7)nn6C)(CC4)CC5)C(=O)C45CC(F)(C4)C5)c3)cc2s1 [Example 546, N-((4-(3-cyclopropyl-1-methyl-1H-pyrazol-5-yl)bicyclo[2.2.2]octan-1-yl)methyl)-3-fluoro-N-(4-(2-methylbenzo[d]thiazol-6-yl)pyridin-2-yl)bicyclo[1.1.1]pentane-1-carboxamide]",0.048
3,"CC1(O)CC(C(=O)N(CC23CCC(c4noc(C(C)(C)C)n4)(CC2)CC3)c2cccc(-c3ccc(OC(F)F)cc3)c2)C1 [Example 517, (1S,3S)—N-((4-(5-(tert-butyl)-1,2,4-oxadiazol-3-yl)bicyclo[2.2.2]octan-1-yl)methyl)-N-(4′-(difluoromethoxy)-[1,1′-biphenyl]-3-yl)-3-hydroxy-3-methylcyclobutane-1-carboxamide]",0.255
4,"O=C(N(CC12CCC(c3noc(C4(C(F)(F)F)CC4)n3)(CC1)CC2)c1cccc(-c2cnc3nc(C4CC4)sc3c2)c1)C12CC(F)(C1)C2 [Example 526, N-(3-(2-cyclopropylthiazolo[4,5-b]pyridin-6-yl)phenyl)-3-fluoro-N-((4-(5-(1-(trifluoromethyl)cyclopropyl)-1,2,4-oxadiazol-3-yl)bicyclo[2.2.2]octan-1-yl)methyl) bicyclo[1.1.1]pentane-1-carboxamide]",0.497
5,"Cc1nc2ccc(-c3cccc(N(CC45CCC(c6nnc(C7CC7)o6)(CC4)CC5)C(=O)C4CC(C(F)F)C4)c3)cc2s1 (stereo not drawn) [Example 562, N-((4-(5-cyclopropyl-1,3,4-oxadiazol-2-yl)bicyclo[2.2.2]octan-1-yl)methyl)-3-(difluoromethyl)-N-(3-(2-methylbenzo[d]thiazol-6-yl)phenyl)cyclobutane-1-carboxamide]",0.318
6,"CC(C)(C)c1nc(C23CCC(CN(C(=O)C45CC(F)(C4)C5)c4cc(-c5ccc(OC(F)F)cn5)ccn4)(CC2)CC3)no1 [Example 544, N-((4-(5-(tert-butyl)-1,2,4-oxadiazol-3-yl)bicyclo[2.2.2]octan-1-yl)methyl)-N-(5-(difluoromethoxy)-[2,4′-bipyridin]-2′-yl)-3-fluorobicyclo[1.1.1]pentane-1-carboxamide]",0.02

# Same assay, conditions: Gal4-hFXR fusion construct, HEK293 reporter cells; response relative to 8 μM GW-4064
row,Compound,EC50 [µM]
1,"CC(C)(O)c1ccc(-c2cccc(N(CC34CCC(c5noc(C(C)(C)F)n5)(CC3)CC4)C(=O)N[C@H]3C[C@]4(C[C@@H](O)C4)C3)c2)cc1 (stereo partly drawn) [Example 664, 1-((4-(5-(2-fluoropropan-2-yl)-1,2,4-oxadiazol-3-yl)bicyclo[2.2.2]octan-1-yl)methyl)-1-(4′-(2-hydroxypropan-2-yl)-[1,1′-biphenyl]-3-yl)-3-((2S,4S,6S)-6-hydroxyspiro[3.3]heptan-2-yl)urea]",0.047
2,"CC(C)Oc1ccc(-c2ccnc(N(CC34CCC(c5noc(C(C)(C)F)n5)(CC3)CC4)C(=O)OC(C)(C)C(F)(F)F)n2)cc1 [Example 636, 1,1,1-trifluoro-2-methylpropan-2-yl ((4-(5-(2-fluoropropan-2-yl)-1,2,4-oxadiazol-3-yl)bicyclo[2.2.2]octan-1-yl)methyl)(4-(4-isopropoxyphenyl)pyrimidin-2-yl)carbamate]",0.068
3,"COc1ncc(C23CCC(CN(C(=O)C45CC(F)(C4)C5)c4cccc(-c5ccc6nc(C)sc6c5)c4)(CC2)CO3)cn1 [Example 558, 3-Fluoro-N-((1-(2-methoxypyrimidin-5-yl)-2-oxabicyclo[2.2.2]octan-4-yl)methyl)-N-(3-(2-methylbenzo[d]thiazol-6-yl)phenyl)bicyclo[1.1.1]pentane-1-carboxamide]",0.561
4,"O=C(N(CC12CCC(c3nc(C4CC4)no3)(CC1)CC2)c1cccc(-c2cc(F)c3nccn3c2)c1)C12CC(F)(C1)C2 [Example 317, N-((4-(3-cyclopropyl-1,2,4-oxadiazol-5-yl)bicyclo[2.2.2]octan-1-yl)methyl)-3-fluoro-N-(3-(8-fluoroimidazo[1,2-a]pyridin-6-yl)phenyl)bicyclo[1.1.1]pentane-1-carboxamide]",0.887
5,"O=C(N(CC12CCC(c3nc(C4CC4)no3)(CC1)CC2)c1cccc(-c2cnc3nc(C4CC4)sc3c2)c1)C12CC(F)(C1)C2 [Example 276, N-((4-(3-cyclopropyl-1,2,4-oxadiazol-5-yl)bicyclo[2.2.2]octan-1-yl)methyl)-N-(3-(2-cyclopropylthiazolo[4,5-b]pyridin-6-yl)phenyl)-3-fluorobicyclo[1.1.1]pentane-1-carboxamide]",0.0775
6,"COc1cc(-c2cccc(N(CC34CCC(c5cccc(C)n5)(CC3)CC4)C(=O)C34CC(F)(C3)C4)c2)ccn1 [Example 239, 3-Fluoro-N-(3-(2-methoxypyridin-4-yl)phenyl)-N-((4-(6-methylpyridin-2-yl)bicyclo[2.2.2]octan-1-yl)methyl)bicyclo[1.1.1]pentane-1-carboxamide]",1.32
7,"CCOc1ncc(-c2cncc(N(CC34CCC(c5nc(C(C)(C)C)no5)(CC3)CC4)C(=O)C34CC(F)(C3)C4)c2)cn1 [Example 472, N-((4-(3-(tert-butyl)-1,2,4-oxadiazol-5-yl)bicyclo[2.2.2]octan-1-yl)methyl)-N-(5-(2-ethoxypyrimidin-5-yl)pyridin-3-yl)-3-fluorobicyclo[1.1.1]pentane-1-carboxamide]",0.758
8,"Cc1nc2ccc(-c3cccc(N(CC45CCC(c6noc(C(C)C)n6)(CC4)CC5)C(=O)C45CC(F)(C4)C5)c3)cc2s1 [Example 433, 3-fluoro-N-((4-(5-isopropyl-1,2,4-oxadiazol-3-yl)bicyclo[2.2.2]octan-1-yl)methyl)-N-(3-(2-methylbenzo[d]thiazol-6-yl)phenyl)bicyclo[1.1.1]pentane-1-carboxamide]",0.037
9,"CC(C)(F)c1nc(C23CCC(CN(c4cccc(-c5ccc(-c6nonc6N)cc5)c4)C(=O)[C@H]4C[C@](O)(C(F)(F)F)C4)(CC2)CC3)no1 [Example 662, (cis)-N-(4′-(4-amino-1,2,5-oxadiazol-3-yl)-[1,1′-biphenyl]-3-yl)-N-((4-(5-(2-fluoropropan-2-yl)-1,2,4-oxadiazol-3-yl)bicyclo[2.2.2]octan-1-yl)methyl)-3-hydroxy-3-(trifluoromethyl)cyclobutane-1-carboxamide]",0.574
10,"CC(C)Oc1ccc(-c2cc(N(CC34CCC(c5nc(C6CC6)no5)(CC3)CC4)C(=O)OC(C)(C)C(F)(F)F)ncc2F)cc1 [Example 617, 1,1,1-trifluoro-2-methylpropan-2-yl ((4-(3-cyclopropyl-1,2,4-oxadiazol-5-yl)bicyclo[2.2.2]octan-1-yl)methyl)(5-fluoro-4-(4-isopropoxyphenyl)pyridin-2-yl)carbamate]",0.081
11,CC(C)(C)NC(=O)N(CC12CCC(c3noc(C(C)(C)F)n3)(CC1)CC2)c1cc(-c2ccc(OC(F)F)cc2)cnn1 [Example 660],2.19
12,"CCOc1ccc(-c2cccc(N(CC34CCC(c5nc(C(C)C)no5)(CC3)CC4)C(=O)C34CC(F)(C3)C4)c2)cn1 [Example 381, N-(3-(6-ethoxypyridin-3-yl)phenyl)-3-fluoro-N-((4-(3-isopropyl-1,2,4-oxadiazol-5-yl)bicyclo[2.2.2]octan-1-yl)methyl)bicyclo[1.1.1]pentane-1-carboxamide]",0.04
13,"CC(C)(O)c1ccc(-c2ccnc(N(CC34CCC(c5noc(C(C)(F)F)n5)(CC3)CC4)C(=O)OC(C)(C)C(F)(F)F)c2)cc1 [Example 609, 1,1,1-trifluoro-2-methylpropan-2-yl((4-(5-(1,1-difluoroethyl)-1,2,4-oxadiazol-3-yl)bicyclo[2.2.2]octan-1-yl)methyl)(4-(4-(2-hydroxypropan-2-yl)phenyl)pyridin-2-yl)carbamate]",0.03
14,"Cc1nc2ccc(-c3cccc(N(CC45CCC(c6noc(C7(C)CC7)n6)(CC4)CC5)C(=O)C45CC(F)(C4)C5)c3)cc2s1 [Example 402, 3-fluoro-N-(3-(2-methylbenzo[d]thiazol-6-yl)phenyl)-N-((4-(5-(1-methylcyclopropyl)-1,2,4-oxadiazol-3-yl)bicyclo[2.2.2]octan-1-yl)methyl)bicyclo[1.1.1]pentane-1-carboxamide]",0.035
15,"CC(C)c1noc(C23CCC(CN(C(=O)C45CC(F)(C4)C5)c4cccc(-c5ccc(NS(=O)(=O)C6CC6)cc5)c4)(CC2)CC3)n1 [Example 379, N-(4′-(cyclopropanesulfonamido)-[1,1′-biphenyl]-3-yl)-3-fluoro-N-((4-(3-isopropyl-1,2,4-oxadiazol-5-yl)bicyclo[2.2.2]octan-1-yl)methyl)bicyclo[1.1.1]pentane-1-carboxamide]",0.132
16,"O=C(N(CC12CCC(c3nc(C4CC4)no3)(CC1)CC2)c1cccc(-c2ccc3ncsc3c2)c1)C12CC(F)(C1)C2 [Example 277, N-(3-(benzo[d]thiazol-6-yl)phenyl)-N-((4-(3-cyclopropyl-1,2,4-oxadiazol-5-yl)bicyclo[2.2.2]octan-1-yl)methyl)-3-fluorobicyclo[1.1.1]pentane-1-carboxamide]",0.035
17,"CC(C)(C)c1noc(C23CCC(CN(C(=O)C45CC(F)(C4)C5)c4cccc(-c5ncc(OC(F)F)cn5)c4)(CC2)CC3)n1 [Example 371, N-((4-(3-(tert-butyl)-1,2,4-oxadiazol-5-yl)bicyclo[2.2.2]octan-1-yl)methyl)-N-(3-(5-(difluoromethoxy)pyrimidin-2-yl)phenyl)-3-fluorobicyclo[1.1.1]pentane-1-carboxamide]",0.045
18,"O=C(N(CC12CCC(c3nc(C4CC4)no3)(CC1)CC2)c1cccc(-c2ccc(OC(F)F)cc2)c1)C12CC(F)(C1)C2 [Example 308, N-((4-(3-cyclopropyl-1,2,4-oxadiazol-5-yl)bicyclo[2.2.2]octan-1-yl)methyl)-N-(4′-(difluoromethoxy)-[1,1′-biphenyl]-3-yl)-3-fluorobicyclo[1.1.1]pentane-1-carboxamide]",0.015
